B1: Caulobacter crescentus CpaF (Tad pilus motor ATPase) (enzyme, Caulobacter crescentus NA1000, UniProt Q9L714 1-501, looked up)
chain: MFGKRDSSASGDPKAPPPAPAGGATIATRPQRVEPVAAPEPKAPAPKVSGPAPKPTVGLEQLRAAQGQPQTANIVREQSDYYHATKTTIFNALLNTIDLSQLAQLDLKQAGEEIRDIVAELVAIKNVSMSVAEQEHLVQDIINDVLGYGPLEPLLARDDIADIMVNGAHRVFIEVGGKVQLTNVRFRDNLQLMNICQRIVSQVGRRVDESSPICDARLPDGSRVNVIAPPLALDGPTLTIRKFKKDKLTMKNLVEFASISPEGARVLGVIGACRCNLVISGGTGSGKTTLLNTMTAFIDPTERVVTCEDAAELQLQQPHVVRLETRPPNLEGSGAVTMRDLVKNCLRMRPERIIVGEVRGPEAFDLLQAMNTGHDGSMGTLHANSPREAISRIESMITMGGYGLPSKTIKEMIVGSVDVIIQAARLRDGSRRITHITEVVGLEGDVIVTQDLFVYEITGEDEHGKVVGKHRSTGIARPRFWDRARYYGLERELAEALDAAE
notes: CpaF, Caulobacter crescentus NA1000, cloned from genomic DNA into pET28a; 501 residues (IDR 1-79, 3HB 80-146, NTD-CAD 147-501); residues 80-501 are modelled in the maps, the IDR is not resolved; Hexamer with C2 symmetry in all five cryo-EM structures; the construct was cloned from strain NA1000; also called WT CpaF; full length CpaF; source: E. coli Rosetta 2, purified (Ni-NTA, Superose 6 SEC)

Key:
CpaF^80-501 = target: T1, CpaF^80-501 (Caulobacter vibrioides, UniProt Q9L714); experiment: enzyme-coupled ATPase assay (pyruvate kinase / lactate dehydrogenase, NADH at […] nm); format: biochemical; settings: 1 mM ATP, 1 mM MgCl2, pH 8.0, 30 °C
T1 construct: IDR truncation, residues 80-501 (whole IDR removed), N-terminal His6 tag (pET28a), E. coli Rosetta 2

CpaF^66-501 = target: T2, CpaF^66-501 (Caulobacter vibrioides, UniProt Q9L714); experiment: as above; format: biochemical; settings: 1 mM ATP, 1 mM MgCl2, pH 8.0, 30 °C
T2 construct: IDR truncation, residues 66-501, N-terminal His6 tag (pET28a), E. coli Rosetta 2

CpaF = target: T3, CpaF (Caulobacter vibrioides, UniProt Q9L714, K287A); experiment: as above; format: biochemical; settings: 1 mM ATP, 1 mM MgCl2, pH 8.0, 30 °C; Walker A mutant
T3 construct: full length (501 residues), N-terminal His6 tag (pET28a), tag removal not described, E. coli Rosetta 2; homohexamer; residues 80-501 modelled
T3 sequence (Q9L714 entry or part of it K287A): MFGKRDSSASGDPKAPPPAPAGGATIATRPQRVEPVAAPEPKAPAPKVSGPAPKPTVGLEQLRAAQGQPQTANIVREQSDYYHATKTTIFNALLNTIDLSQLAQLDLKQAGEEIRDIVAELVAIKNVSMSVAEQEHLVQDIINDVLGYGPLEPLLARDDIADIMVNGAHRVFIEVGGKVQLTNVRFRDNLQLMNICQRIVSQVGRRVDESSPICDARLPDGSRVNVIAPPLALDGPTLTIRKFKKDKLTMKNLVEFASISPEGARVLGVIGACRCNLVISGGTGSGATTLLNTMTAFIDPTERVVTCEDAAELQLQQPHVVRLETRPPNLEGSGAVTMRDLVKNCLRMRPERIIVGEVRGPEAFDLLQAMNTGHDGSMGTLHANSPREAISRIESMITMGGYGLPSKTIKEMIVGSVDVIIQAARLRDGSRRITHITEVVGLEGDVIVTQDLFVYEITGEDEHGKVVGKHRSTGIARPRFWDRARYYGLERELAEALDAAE

CpaF^73-501 = target: T4, CpaF^73-501 (Caulobacter vibrioides, UniProt Q9L714); experiment: as above; format: biochemical; settings: 1 mM ATP, 1 mM MgCl2, pH 8.0, 30 °C
T4 construct: IDR truncation, residues 73-501, N-terminal His6 tag (pET28a), E. coli Rosetta 2

[1] = target: the molecule itself; experiment: cryo-EM structure; purified CpaF, 5 mg/mL, 50 mM HEPES pH 8.0, 200 mM NaCl, 1 mM TCEP, 0.05% CHAPS; three samples: no added nucleotide, 50 uM equimolar ATP/ADP/MgCl2, 1 mM ATP/MgCl2; C2-symmetric hexamers (closed, compact, expanded)

Row | Molecule | ATPase activity (CpaF^80-501) | ATPase activity (CpaF^66-501) | ATPase activity (CpaF) | ATPase activity (CpaF^73-501) | stoichiometry N [1]
1 | Nc1ncnc2c1ncn2[C@@H]1O[C@H](COP(=O)(O)OP(=O)(O)OP(=O)(O)O)[C@@H](O)[C@H]1O [ATP] | Enzyme-coupled ATPase assays revealed that IDR truncation does not abrogate enzyme activity | Enzyme-coupled ATPase assays revealed that IDR truncation does not abrogate enzyme activity | IDR truncation does not abrogate enzyme activity while a Walker A motif point mutant CpaF^K287A does | Enzyme-coupled ATPase assays revealed that IDR truncation does not abrogate enzyme activity | 
2 | B1 |  |  |  |  | 6

Reference: article PMC12019362, “Conformational changes in the motor ATPase CpaF facilitate a rotary mechanism of Tad pilus assembly” (Nature Communications, 2025)
